Results: patent US9067922B2, “Chemical compounds” (Pfizer Limited, priority 2013, dated 2015)

target: URAT-1 transporter (Homo sapiens (Human), UniProt Q96S37); assay: URAT-1 inhibitor activity: [14C]-uric acid uptake in CHO-URAT1(L)GFP#8 (CHO#8) cells, scintillation proximity; type: cell-based; settings: not given
Procedure, shortened: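 CHO cells stably expressing human URAT1 long isoform–eGFP fusion, pre-incubated 1 h in chloride-containing buffer pH 7.4, then given 30 nM [14C]-uric acid with compound (0–10 μM, 0.25% DMSO) in chloride-free gluconate buffer pH 7.4. Uptake measured by scintillation proximity on Cytostar plates.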

Chain of URAT-1 transporter (Q96S37 other isoform, or with tags, fused parts or gaps): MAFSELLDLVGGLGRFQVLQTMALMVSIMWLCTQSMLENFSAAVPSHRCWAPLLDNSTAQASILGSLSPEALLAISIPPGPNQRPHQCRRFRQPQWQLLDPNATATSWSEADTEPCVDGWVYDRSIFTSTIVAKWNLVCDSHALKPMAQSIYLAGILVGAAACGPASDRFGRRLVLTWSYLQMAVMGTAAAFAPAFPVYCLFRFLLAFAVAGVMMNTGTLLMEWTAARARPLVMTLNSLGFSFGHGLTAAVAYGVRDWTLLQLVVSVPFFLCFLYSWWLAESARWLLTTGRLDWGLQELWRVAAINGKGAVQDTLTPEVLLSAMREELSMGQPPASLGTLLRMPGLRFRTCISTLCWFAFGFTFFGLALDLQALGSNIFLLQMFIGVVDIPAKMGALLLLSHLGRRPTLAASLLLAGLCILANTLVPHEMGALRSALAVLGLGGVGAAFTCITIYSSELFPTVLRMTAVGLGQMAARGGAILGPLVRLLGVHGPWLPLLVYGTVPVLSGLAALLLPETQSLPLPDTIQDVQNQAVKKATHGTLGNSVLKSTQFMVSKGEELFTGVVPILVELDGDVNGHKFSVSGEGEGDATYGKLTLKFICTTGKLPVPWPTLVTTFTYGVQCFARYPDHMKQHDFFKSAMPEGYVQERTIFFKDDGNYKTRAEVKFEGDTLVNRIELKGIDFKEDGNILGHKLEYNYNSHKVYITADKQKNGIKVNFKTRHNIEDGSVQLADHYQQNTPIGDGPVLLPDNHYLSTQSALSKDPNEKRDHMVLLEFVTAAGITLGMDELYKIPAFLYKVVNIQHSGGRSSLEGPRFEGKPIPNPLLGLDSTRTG

IC50 | SMILES
21 nM | [2H]c1c(Oc2ccc(S(=O)(=O)Nc3ccc(F)cn3)c(F)c2)c([2H])c(C([2H])([2H])[2H])c(C#N)c1C([2H])([2H])[2H] [Example 249]

same assay, conditions: inhibition of [14C]-uric acid (30 nM) uptake into CHO#8 cells; compound 0 to 10 μM; 4 parameter logistic fit

IC50 | SMILES
244 nM | N#Cc1ccc(Oc2ccc(S(=O)(=O)Nc3ccc(F)cn3)cc2Cl)cc1F [compound 228]
126 nM | N#Cc1ccnc(NS(=O)(=O)c2ccc(Oc3ccc(F)c(Cl)c3)c(C#N)c2)c1 [compound 229]
62 nM | N#Cc1ccc(NS(=O)(=O)c2ccc(Oc3ccc(F)c(Cl)c3)c(C#N)c2)nc1 [compound 230]
53 nM | N#Cc1cc(S(=O)(=O)Nc2ccc(F)cn2)ccc1Oc1cnc(OC(F)F)c(Cl)c1 [compound 231]
12 nM | N#Cc1ccc(Oc2ccc(S(=O)(=O)Nc3ccc(Cl)cn3)cc2C#N)cc1Cl [compound 232, 4-(3-chloro-4-cyanophenoxy)-N-(5-chloropyridin-2-yl)-3-cyanobenzenesulfonamide]
233 nM | Cc1ccc(NS(=O)(=O)c2ccc(Oc3ccc(C#N)c(Cl)c3)c(C#N)c2)nc1 [compound 233]
1150 nM | CC(C)(O)c1ccc(Oc2ccc(S(=O)(=O)Nc3ccc(F)cn3)cc2C#N)cc1 [compound 234]
8 nM | N#Cc1cc(S(=O)(=O)Nc2ccc(F)cn2)ccc1Oc1cc(F)c(C#N)c(Cl)c1 [compound 237, 4-(3-chloro-4-cyano-5-fluorophenoxy)-3-cyano-N-(5-fluoropyridin-2-yl)benzenesulfonamide]
88 nM | Cc1ncc(Oc2ccc(S(=O)(=O)Nc3ccc(F)cn3)cc2C#N)cc1Cl [compound 238]
2 nM | O=S(=O)(Nc1ccc(F)cn1)c1ccc(Oc2cnc(CO)c(Cl)c2)cc1F [compound 239, 4-{[5-chloro-6-(hydroxymethyl)pyridin-3-yl]oxy}-2-fluoro-N-(5-fluoropyridin-2-yl)benzenesulfonamide]
106 nM | N#Cc1cc(S(=O)(=O)Nc2ccc(F)cn2)ccc1Oc1ccc(Cl)c(CO)c1 [compound 240]

More lines, now with the values behind:

SMILES | IC50
N#Cc1cc(Oc2cc(F)c(S(=O)(=O)Nc3ncccn3)cc2Cl)ccc1F [Example 225, 5-chloro-4-(3-cyano-4-fluorophenoxy)-2-fluoro-N-(pyrimidin-2-yl)benzenesulfonamide] | 2330 nM
N#Cc1cc(S(=O)(=O)Nc2ccc(F)cn2)ccc1Oc1cc(Cl)c(C#N)c(Cl)c1 [Example 241, 3-cyano-4-(3,5-dichloro-4-cyanophenoxy)-N-(5-fluoropyridin-2-yl)benzenesulfonamide] | 3 nM
N#Cc1cc(S(=O)(=O)Nc2ccc(F)cn2)ccc1Oc1ccc(CO)c(Cl)c1 [Example 247, 4-[3-chloro-4-(hydroxymethyl)phenoxy]-3-cyano-N-(5-fluoropyridin-2-yl)benzenesulfonamide] | 1 nM
N#Cc1ccc(Oc2c(F)cc(S(=O)(=O)Nc3ccc(F)cn3)cc2C#N)cc1Cl [Example 248, 4-(3-chloro-4-cyanophenoxy)-3-cyano-5-fluoro-N-(5-fluoropyridin-2-yl)benzenesulfonamide] | 324 nM
N#Cc1cc(Oc2ccc(S(=O)(=O)Nc3ncccn3)cc2C#N)ccc1F [compound 209] | > 10000 nM
O=S(=O)(Nc1ncccn1)c1cc(Cl)c(Oc2ccc(F)c(F)c2)cc1F [compound 210] | > 10000 nM
N#Cc1cc(S(=O)(=O)Nc2ncccn2)ccc1Oc1ccc(F)c(F)c1 [compound 211] | > 3000 nM
O=S(=O)(Nc1ncc(F)cn1)c1cc(Cl)c(Oc2ccc(F)c(F)c2)cc1F [compound 212] | > 10000 nM
N#Cc1cc(Oc2cc(F)c(S(=O)(=O)Nc3ncc(F)cn3)cc2Cl)ccc1F [compound 214] | > 1150 nM
N#Cc1ccc(Oc2cc(F)c(S(=O)(=O)Nc3ccc(F)cn3)cc2Cl)cc1F [compound 215] | > 10000 nM
N#Cc1ccc(Oc2cc(F)c(S(=O)(=O)Nc3ncc(F)cn3)cc2Cl)cc1Cl [compound 226] | 1780 nM
N#Cc1ccc(Oc2cc(F)c(S(=O)(=O)Nc3cccnn3)cc2Cl)cc1Cl [compound 227] | > 10000 nM
Cc1cc(Oc2ccc(S(=O)(=O)Nc3ccc(F)cn3)cc2C#N)cc(C)c1C#N [compound 235, 3-cyano-4-({4-cyano-3,5-bis[methyl-D3]-2,3-D2-phenyl}oxy)-N-(5-fluoropyridin-2-yl)benzenesulfonamide] | 13 nM
